Tested on: beet armyworm eggs
Experiment: beet armyworm egg bioassay of separated, semipurified dunaimycins (96-well artificial diet)
Assay type: in vivo, beet armyworm (Spodoptera exigua)
Procedure: The separated, identified dunaimycins were then tested for bioactivity against beet armyworm eggs as follows. Stock solutions were provided as 15% aqueous ethanol solution of various semipurified dunaimycins, either alone or in combinations. For reference purposes, Javelin WDG (Bacillus thuringiensis subspecies Kurstaki; ThermoTrilogy Inc) was weighed out and diluted to give a 1,000 ppm stock solution (positive chemical standard). These stock solutions were transferred to a deep well microtitre plate: 1.4 ml of each stock solutions were placed in the 2 ml well across the top row (A wells 1-12). A Packard Multiprobe II liquid handling system (Perkin Elmer Inc.) then carried out a dilution program, first adding 700 μls of DI H2O to the remaining 84 wells (B-H 1-12). The four tip arm then performed a sequence of aspiration and dispensing steps to mix the samples and then transferred them into an adjoining well to give eight 50% serially diluted samples containing 700 μl per well. The robot then used a transfer program to pipette all of the serial diluted samples to labeled 96 well plates. Aliquots containing 40 μl of each dilution were dispensed into six wells across a microtitre plate containing ˜200 μl of artificial diet/well. […] Mortality was recorded as the number dead over the number treated and expressed as control corrected percent mortality. […]

CCC(O)CC1OC2(CCC1C)CC1OC(=O)/C=C\C(C)C(O)C(C)C(O)CC(O)C(C)CCCCC/C=C/C(CC(C)C)C(=O)CC(O2)C1C (centres unmarked) [Dunaimycin A1]
LD50 (ppm) BAW assay (Tested alone): Inactive up to 1000 ppm | insecticidal activity (active or inactive dunaimycin) (classification of purified species, inactive up to about 1000 ppm): Inactive
